Data on 10 molecules can be found in patent US6043275A, “3,7-dithiaprostanoic acid derivative” (Ono Pharmaceutical Co., Ltd., priority 1998, dated 2000).

As usually defined, the Ki is the dissociation constant of the complex between target and ligand, obtained from inhibition or displacement.

For one assay, the target named is T1, mouse EP3 α (Mus musculus, UniProt P30557).
T1 construct: expressed in transfected cells; host or cells: CHO cells (membrane fraction)
T1 sequence (P30557 1-365): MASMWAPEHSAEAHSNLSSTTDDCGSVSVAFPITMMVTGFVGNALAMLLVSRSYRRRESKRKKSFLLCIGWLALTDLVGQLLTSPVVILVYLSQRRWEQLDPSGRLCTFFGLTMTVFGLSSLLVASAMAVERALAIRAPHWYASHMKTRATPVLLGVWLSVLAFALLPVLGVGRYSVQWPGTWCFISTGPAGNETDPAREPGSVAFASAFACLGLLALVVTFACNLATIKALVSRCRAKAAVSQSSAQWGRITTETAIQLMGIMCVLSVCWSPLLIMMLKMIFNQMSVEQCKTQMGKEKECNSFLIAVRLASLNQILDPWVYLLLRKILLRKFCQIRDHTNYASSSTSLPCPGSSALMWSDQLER
As to the kind of experiment: Binding assay using cell expressing the prostanoid receptor subtypes (EP3α). The following applies: more polar isomer; membrane fraction of CHO cell expressing mouse EP3α; [3H]-PGE2 2.5 nM; 1 hour, room temperature; pH 6.0; read-out: dissociation constant Ki (μM) EP3α. The procedure:
For example, in a standard laboratory test, such effects of the compound of the present invention were confirmed by binding assay using cell expressing the prostanoid receptor subtypes. (i) Binding assay using cell expressing the prostanoid receptor subtypes
The preparation of membrane fraction was carried out according to the method of Sugimoto et al [J. Biol. Chem. 267, 6463-6466 (1 992)], using CHO cell expressing prostanoid receptor subtype (mouse EP3 α, EP4).
The standard assay mixture containing membrane fraction (0.5 mg/ml), [^3 H]-PGE2 in a final volume of 200 μl was incubated for 1 hour at room temperature. The reaction was terminated by addition of 3 ml of ice-cold buffer. The mixture was rapidly filtered through a glass filter (GF/B). The radioactivity associated with the filter was measured by liquid scintillation counter.
Kd and Bmax values were determined from Scatchard plots [Ann. N.Y. Acad. Sci., 51, 660 (1949)]. Non-specific binding was calculated as the amount bond in the presence of an excess (2.5 μM) of unlabeled PGE2. In the experiment for competition of specific [^3 H]-PGE2 binding by the compounds of the present invention, [^3 H]-PGE2 was added at a concentration of 2.5 nM and the compound of the present invention was added at a various concentration.
The following buffer was used in all reactions. Buffer: 10 mM potassium phosphate (pH 6.0), 1 mM EDTA, 10 mM MgCl2, 0.1 M NaCl
The dissociation constant (Ki) of each compound was calculated by the following equation.

In another assay the target is T2, mouse EP4 (Mus musculus, UniProt P32240).
T2 construct: expressed in transfected cells; host or cells: CHO cells (membrane fraction)
T2 sequence (P32240 whole entry): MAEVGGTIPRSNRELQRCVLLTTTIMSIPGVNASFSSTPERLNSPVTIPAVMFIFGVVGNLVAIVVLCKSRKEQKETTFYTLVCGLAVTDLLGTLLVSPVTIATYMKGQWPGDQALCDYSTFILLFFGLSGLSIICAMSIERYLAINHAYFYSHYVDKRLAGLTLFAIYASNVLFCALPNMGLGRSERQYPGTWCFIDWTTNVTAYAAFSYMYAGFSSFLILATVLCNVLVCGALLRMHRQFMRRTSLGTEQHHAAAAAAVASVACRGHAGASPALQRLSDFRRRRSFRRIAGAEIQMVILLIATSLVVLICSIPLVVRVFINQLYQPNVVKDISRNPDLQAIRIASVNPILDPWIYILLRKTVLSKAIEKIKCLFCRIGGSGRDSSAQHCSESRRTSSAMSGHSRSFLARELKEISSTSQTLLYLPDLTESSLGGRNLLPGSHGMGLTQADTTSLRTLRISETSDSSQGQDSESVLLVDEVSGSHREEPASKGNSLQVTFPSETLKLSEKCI
As to the kind of experiment: Binding assay using cell expressing the prostanoid receptor subtypes (EP4). Particulars: more polar isomer; membrane fraction of CHO cell expressing mouse EP4; [3H]-PGE2 2.5 nM; 1 hour, room temperature; pH 6.0; read-out: dissociation constant Ki (μM) EP4. As for the experimental part: For example, in a standard laboratory test, such effects of the compound of the present invention were confirmed by binding assay using cell expressing the prostanoid receptor subtypes. (i) Binding assay using cell expressing the prostanoid receptor subtypes The preparation of membrane fraction was carried out according to the method of Sugimoto et al [J. Biol. […] The standard assay mixture containing membrane fraction (0.5 mg/ml), [^3 H]-PGE2 in a final volume of 200 μl was incubated for 1 hour at room temperature. The reaction was terminated by addition of 3 ml of ice-cold buffer. The mixture was rapidly filtered through a glass filter (GF/B). The radioactivity associated with the filter was measured by liquid scintillation counter. Kd and Bmax values were determined from Scatchard plots [Ann. N.Y. Acad. Sci., 51, 660 (1949)]. Non-specific binding was calculated as the amount bond in the presence of an excess (2.5 μM) of unlabeled PGE2. In the experiment for competition of specific [^3 H]-PGE2 binding by the compounds of the present invention, [^3 H]-PGE2 was added at a concentration of 2.5 nM and the compound of the present invention was added at a various concentration. The following buffer was used in all reactions. Buffer: 10 mM potassium phosphate (pH 6.0), 1 mM EDTA, 10 mM MgCl2, 0.1 M NaCl The dissociation constant (Ki) of each compound was calculated by the following equation.

For the molecule `O=C(O)CSCCCS[C@H]1C(=O)C[C@@H](O)[C@@H]1/C=C/C(O)Cc1cccc(C#Cc2ccccc2)c1` (single isomer, unassigned) [Example 2(bbb), 11 α, 15-dihydroxy-9-oxo-16-(3-phenylethynylphenyl)-17,18,19,20-tetranor-3,7-dithiaprost-13E-enoic acid], the Ki at mouse EP3 α stood at 0.23 µM; on mouse EP4, 0.0003 µM.

For the molecule `COc1cccc(CC(O)/C=C/[C@H]2[C@H](O)CC(=O)[C@@H]2SCCCSCC(=O)O)c1` (single isomer, unassigned) [Example 2(f), 11 α, 15-dihydroxy-9-oxo-16-(3-methoxyphenyl)-17,18,19,20-tetranor-3,7-dithiaprost-13E-enoic acid], the Ki on mouse EP3 α came to 0.51 µM; at mouse EP4, 0.0099 µM.

On to `O=C(O)CSCCCS[C@H]1C(=O)C[C@@H](O)[C@@H]1/C=C/C(O)Cc1cccc(-c2ccco2)c1` (single isomer, unassigned) [Example 2(ii), 11 α, 15-dihydroxy-9-oxo-16-[3-(2-furyl)phenyl]-17,18,19,20-tetranor-3,7-dithiaprost-13E-enoic acid], for which the Ki on mouse EP3 α was 0.25 µM; at mouse EP4, 0.0028 µM.

As to `COc1ccc(CC(O)/C=C/[C@H]2[C@H](O)CC(=O)[C@@H]2SCCCSCC(=O)O)cc1Cl` (single isomer, unassigned) [Example 2(l), 11 α, 15-dihydroxy-9-oxo-16-(4-methoxy-3-chlorophenyl)-17,18,19,20-tetranor-3,7-dithiaprost-13E-enoic acid], the Ki at mouse EP3 α is 2.2 µM; at mouse EP4, 0.011 µM.

`C=CCOCc1cccc(CC(O)/C=C/[C@H]2[C@H](O)CC(=O)[C@@H]2SCCCSCC(=O)O)c1` (single isomer, unassigned) [Example 2(lll), 11 α, 15-dihydroxy-9-oxo-16-[3-(2-propenyloxymethyl)phenyl]-17,18,19,20-tetranor-3,7-dithiaprost-13E-enoic acid]: the Ki at mouse EP3 α was 6.2 µM; on mouse EP4, 0.0014 µM.

Turning to `O=C(O)CSCCCS[C@H]1C(=O)C[C@@H](O)[C@@H]1/C=C/C(O)Cc1cccc(COC2CCCCC2)c1` (single isomer, unassigned) [Example 2(mmm), 11 α, 15-dihydroxy-9-oxo-16-(3-cyclohexyloxymethylphenyl)-17,18,19,20-tetranor-3,7-dithiaprost-13E-enoic acid], the Ki at mouse EP3 α was greater than 10 µM; on mouse EP4, 0.04 µM.

Take `O=C(O)CSCCCS[C@H]1C(=O)C[C@@H](O)[C@@H]1/C=C/C(O)Cc1cccc(-c2ccccc2)c1` (single isomer, unassigned) [Example 2(r), 11 α, 15-dihydroxy-9-oxo-16-(biphenyl-3-yl)-17,18,19,20-tetranor-3,7-dithiaprost-13E-enoic acid]: the results for the Ki at mouse EP3 α and at mouse EP4 were 0.97 µM and 0.001 µM, respectively.

Take `O=C(O)CSCCCS[C@H]1C(=O)C[C@@H](O)[C@@H]1/C=C/C(O)Cc1cccc(COc2ccccc2)c1` (single isomer, unassigned) [Example 2(rr), 11 α, 15-dihydroxy-9-oxo-16-(3-phenyloxymethylphenyl)-17,18,19,20-tetranor-3,7-dithiaprost-13E-enoic acid]: the Ki at mouse EP3 α was determined as 1.9 µM; at mouse EP4, 0.0042 µM.

Consider `O=C(O)CSCCCS[C@H]1C(=O)C[C@@H](O)[C@@H]1/C=C/C(O)Cc1cccc(CCF)c1` (single isomer, unassigned) [Example 2(tt), 11 α, 15-dihydroxy-9-oxo-16-[3-(2-fluoroethyl)phenyl]-17,18,19,20-tetranor-3,7-dithiaprost-13E-enoic acid], for which the Ki on mouse EP3 α turned out to be 0.9 µM; at mouse EP4, 0.0065 µM.

As to `COCc1cccc(C[C@H](O)/C=C/[C@H]2[C@H](O)CC(=O)[C@@H]2SCCCSCC(=O)O)c1` [Example 2, 11 α, 15 α-dihydroxy-9-oxo-16-(3-methoxymethylphenyl)-17,18,19,20-tetranor-3,7-dithiaprost-13E-enoic acid], the Ki at mouse EP3 α was 1.2 µM; on mouse EP4, 0.0097 µM.
